The source of these data is article PMC2964301, “Human α3β4 Neuronal Nicotinic Receptors Show Different Stoichiometry if They Are Expressed in Xenopus Oocytes or Mammalian HEK293 Cells” (PLoS ONE, 2010).

Molecules are shown by their SMILES.

Common to all, as to format: cell-based
Assay [1] concerns the target T1, human α3β4 nicotinic receptor in Xenopus oocytes, 9:1 α:β cRNA (putative three-α form) (Homo sapiens, UniProt P30926+P32297).
T1 construct: gene CHRNA3; untagged; Xenopus laevis oocytes, 9:1 α:β cRNA; heteropentamer, putative (α3)3(β4)2
In words: two-electrode voltage clamp, extrapolated from low-concentration potency ratio. Conditions: agonist, unreliable (extrapolated assuming identical efficacy to ACh).

In assay [2] the target is T2, human α3β4 nicotinic receptor in Xenopus oocytes, 1:9 α:β cRNA (putative two-α form) (Homo sapiens, UniProt P30926+P32297).
T2 construct: gene CHRNA3; untagged; Xenopus laevis oocytes, 1:9 α:β cRNA; heteropentamer, putative (α3)2(β4)3
Described as above. Conditions: agonist, unreliable (extrapolated assuming identical efficacy to ACh).
Target sequence in this assay (P30926 22-498): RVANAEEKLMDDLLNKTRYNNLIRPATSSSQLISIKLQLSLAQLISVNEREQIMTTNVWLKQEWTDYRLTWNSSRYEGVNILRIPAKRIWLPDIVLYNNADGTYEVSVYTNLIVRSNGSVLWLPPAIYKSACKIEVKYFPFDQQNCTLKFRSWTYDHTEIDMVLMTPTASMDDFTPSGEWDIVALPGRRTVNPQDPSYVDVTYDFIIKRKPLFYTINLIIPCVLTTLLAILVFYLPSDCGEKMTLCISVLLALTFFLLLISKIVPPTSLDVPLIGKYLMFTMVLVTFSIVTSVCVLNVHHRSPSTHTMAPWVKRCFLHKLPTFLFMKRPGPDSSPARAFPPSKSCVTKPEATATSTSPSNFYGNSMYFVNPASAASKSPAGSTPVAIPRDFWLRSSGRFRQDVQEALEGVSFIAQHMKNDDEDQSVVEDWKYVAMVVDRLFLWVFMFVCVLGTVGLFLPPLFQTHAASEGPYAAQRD
Target sequence in this assay (P32297 32-505): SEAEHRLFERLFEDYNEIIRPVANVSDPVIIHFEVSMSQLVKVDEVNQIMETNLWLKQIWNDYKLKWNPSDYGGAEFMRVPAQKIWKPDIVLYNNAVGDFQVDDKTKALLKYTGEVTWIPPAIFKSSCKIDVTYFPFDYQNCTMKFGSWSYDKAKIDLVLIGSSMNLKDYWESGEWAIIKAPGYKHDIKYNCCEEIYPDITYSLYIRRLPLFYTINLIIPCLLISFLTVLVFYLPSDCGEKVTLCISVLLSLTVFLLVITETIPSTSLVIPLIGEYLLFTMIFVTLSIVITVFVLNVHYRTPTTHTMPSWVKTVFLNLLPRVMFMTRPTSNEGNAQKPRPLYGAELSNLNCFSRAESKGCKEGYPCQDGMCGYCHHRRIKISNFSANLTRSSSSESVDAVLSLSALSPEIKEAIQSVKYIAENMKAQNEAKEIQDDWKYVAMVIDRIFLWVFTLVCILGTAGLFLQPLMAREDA

The target in assay [3] is T2, human α3β4 nicotinic receptor in Xenopus oocytes, 1:9 α:β cRNA (putative two-α form). In words: two-electrode voltage clamp, partial dose-response curves. Conditions: agonist, -70 mV, pH 7.2, nominally Ca-free, 0.5 µM atropine, 18°C, low concentrations. The text has this: two-electrode voltage clamp, partial dose-response curves on human α3β4 nicotinic receptor in Xenopus oocytes, 1:9 α:β cRNA (putative two-α form)

T1 sequence (P30926 22-498): as the sequence (P30926 22-498) above
T1 sequence (P32297 32-505): as the sequence (P32297 32-505) above

As for `C[N+]1(C)CCN(c2ccccc2)CC1` [DMPP, 1,1-dimethyl-4-phenylpiperazinium iodide], the “EC 50” value in assay [1] was ~ 30 µM; in assay [2] it was ~ 140 µM.
In the case of `C[N+](C)(C)CCOC(N)=O` [carbachol], the Potency ratio in assay [3] came out at 0.094±0.003.
Still for that read-out and setting: under `O=c1cccc2n1C[C@@H]1CNC[C@H]2C1` [cytisine] stands 1.40±0.15.
Still for that read-out and setting: the figure for `Clc1ccc(C2CC3CCC2N3)cn1` (stereo not shown) [epibatidine] is 6290±815.
`CN1[C@@H](CC(=O)c2ccccc2)CCC[C@H]1C[C@H](O)c1ccccc1` [lobeline]: the Potency ratio in assay [3] is 7.35±0.56.
On to `CN1CCC[C@H]1c1cccnc1` [nicotine], for which, in assay [3], the Potency ratio was determined as 1.43±0.14.
